In general, IC50 refers to the point on the concentration scale where inhibition reaches its midpoint. In general, Ki refers to the dissociation constant of the complex between target and ligand, obtained from inhibition or displacement.

One data set deals with T1, Cytochrome P450 1A2 (Homo sapiens, UniProt P05177).
T1 sequence (P05177 whole entry): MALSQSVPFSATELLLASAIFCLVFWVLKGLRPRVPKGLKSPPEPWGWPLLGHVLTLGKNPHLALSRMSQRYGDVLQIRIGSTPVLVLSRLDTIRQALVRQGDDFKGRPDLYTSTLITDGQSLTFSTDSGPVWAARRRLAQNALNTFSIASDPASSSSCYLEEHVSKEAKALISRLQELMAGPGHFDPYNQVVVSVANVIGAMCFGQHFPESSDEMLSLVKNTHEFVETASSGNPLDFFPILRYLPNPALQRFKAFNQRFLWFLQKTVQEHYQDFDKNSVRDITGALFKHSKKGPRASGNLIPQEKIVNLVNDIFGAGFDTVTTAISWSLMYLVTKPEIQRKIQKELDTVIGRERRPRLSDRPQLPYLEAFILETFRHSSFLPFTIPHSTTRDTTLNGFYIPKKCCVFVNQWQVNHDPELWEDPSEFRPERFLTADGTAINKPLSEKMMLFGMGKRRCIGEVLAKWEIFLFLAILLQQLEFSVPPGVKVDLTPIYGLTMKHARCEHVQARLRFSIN
Particulars: bti-tn-5b1-4.

Data set [1] is described as follows: DRUGMATRIX: Glutamate, Kainate radioligand binding (ligand: [3H] Kainic acid). Format: cell membranes, Rattus norvegicus, Wistar, Brain, Membrane. As to conditions: Not Active = under 50% inhibition at 10 µM.
Data set [2] concerns the target T2, C-C chemokine receptor type 4 (Homo sapiens, UniProt P51679). Also: in other assays of this panel Not Active means under 50% inhibition at 10 µM.
T2 sequence (P51679 whole entry): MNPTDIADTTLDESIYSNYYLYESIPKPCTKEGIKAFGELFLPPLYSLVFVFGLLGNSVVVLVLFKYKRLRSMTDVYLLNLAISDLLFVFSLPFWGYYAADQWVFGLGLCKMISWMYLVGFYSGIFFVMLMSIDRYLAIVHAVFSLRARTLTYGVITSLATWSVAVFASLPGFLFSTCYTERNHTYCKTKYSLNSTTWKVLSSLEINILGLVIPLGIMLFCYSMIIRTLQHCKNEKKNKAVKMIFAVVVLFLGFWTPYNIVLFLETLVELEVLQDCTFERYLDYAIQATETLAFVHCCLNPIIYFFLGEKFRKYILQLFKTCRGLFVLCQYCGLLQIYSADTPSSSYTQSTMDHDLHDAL
Format: cell membranes, Membrane. Particulars: chem-1.

Data set [3] is described as follows: DRUGMATRIX: Interleukin IL-1 radioligand binding (ligand: [125I] interleukin 1beta). Type of data set: cell membranes, Membrane. Particulars: nih3t3; Not Active = under 50% inhibition at 10 µM.
Another data set concerns the target T3, Estrogen receptor (Homo sapiens, UniProt P03372). Also: in other assays of this panel Not Active means under 50% inhibition at 10 µM.
T3 sequence (P03372 whole entry): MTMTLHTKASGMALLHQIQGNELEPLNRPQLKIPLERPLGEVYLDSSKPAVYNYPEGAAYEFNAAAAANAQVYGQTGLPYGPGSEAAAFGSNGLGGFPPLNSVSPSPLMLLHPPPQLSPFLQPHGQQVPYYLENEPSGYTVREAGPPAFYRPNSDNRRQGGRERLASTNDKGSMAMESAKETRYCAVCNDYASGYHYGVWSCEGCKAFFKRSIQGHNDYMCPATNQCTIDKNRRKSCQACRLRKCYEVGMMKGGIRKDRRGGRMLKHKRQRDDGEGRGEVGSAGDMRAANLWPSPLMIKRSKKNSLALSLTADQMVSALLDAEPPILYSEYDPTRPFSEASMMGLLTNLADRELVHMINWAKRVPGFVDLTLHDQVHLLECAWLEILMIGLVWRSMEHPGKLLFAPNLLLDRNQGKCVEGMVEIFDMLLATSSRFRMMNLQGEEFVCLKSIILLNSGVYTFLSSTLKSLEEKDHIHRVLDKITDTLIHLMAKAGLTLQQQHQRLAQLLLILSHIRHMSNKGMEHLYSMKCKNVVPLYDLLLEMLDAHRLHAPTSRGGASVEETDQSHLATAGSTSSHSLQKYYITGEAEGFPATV
Particulars: sf9.

The target in data set [4] is T4, Polyunsaturated fatty acid lipoxygenase ALOX15 (Oryctolagus cuniculus, UniProt P12530).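 Also: inhibition of 15-lipoxygenase enzyme activity measured with linoleic acid as the substrate; in other assays of this panel Not Active means under 50% inhibition at 10 µM.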
T4 sequence (P12530 whole entry): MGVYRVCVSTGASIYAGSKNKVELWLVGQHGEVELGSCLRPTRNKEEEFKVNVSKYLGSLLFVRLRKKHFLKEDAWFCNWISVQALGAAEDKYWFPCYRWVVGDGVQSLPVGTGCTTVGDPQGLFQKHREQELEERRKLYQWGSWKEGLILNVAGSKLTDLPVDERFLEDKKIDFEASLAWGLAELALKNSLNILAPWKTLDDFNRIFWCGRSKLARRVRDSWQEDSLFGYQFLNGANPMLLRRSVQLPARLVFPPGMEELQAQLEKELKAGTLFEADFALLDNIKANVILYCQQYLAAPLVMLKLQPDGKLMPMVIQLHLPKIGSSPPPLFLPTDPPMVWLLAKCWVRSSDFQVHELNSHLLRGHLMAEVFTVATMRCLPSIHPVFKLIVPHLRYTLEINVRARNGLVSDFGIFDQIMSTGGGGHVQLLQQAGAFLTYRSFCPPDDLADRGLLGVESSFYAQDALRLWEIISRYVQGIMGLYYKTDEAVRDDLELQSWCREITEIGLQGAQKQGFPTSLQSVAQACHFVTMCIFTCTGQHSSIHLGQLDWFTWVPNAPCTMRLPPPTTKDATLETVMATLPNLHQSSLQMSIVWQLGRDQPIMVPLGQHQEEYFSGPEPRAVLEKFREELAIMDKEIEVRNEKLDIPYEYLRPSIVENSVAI
As to the kind of experiment: biochemical. Type of data set: tissue-based, Reticulocytes.

Data set [5] has as its target T5, 5-hydroxytryptamine receptor 2C (Homo sapiens, UniProt P28335).
T5 sequence (P28335 whole entry): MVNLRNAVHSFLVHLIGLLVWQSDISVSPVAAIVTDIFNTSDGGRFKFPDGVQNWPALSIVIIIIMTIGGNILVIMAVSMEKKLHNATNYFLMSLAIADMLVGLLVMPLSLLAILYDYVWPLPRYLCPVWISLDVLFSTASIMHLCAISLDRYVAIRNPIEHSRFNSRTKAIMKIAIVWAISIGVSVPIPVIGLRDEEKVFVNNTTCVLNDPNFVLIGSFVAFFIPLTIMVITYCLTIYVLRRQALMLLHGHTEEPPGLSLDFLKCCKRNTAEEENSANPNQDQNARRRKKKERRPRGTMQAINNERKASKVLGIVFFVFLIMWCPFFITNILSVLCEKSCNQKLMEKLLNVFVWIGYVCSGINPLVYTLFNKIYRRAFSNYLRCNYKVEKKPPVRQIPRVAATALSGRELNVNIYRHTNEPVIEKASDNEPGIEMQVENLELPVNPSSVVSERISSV
As to the kind of experiment: DRUGMATRIX: Serotonin (5-Hydroxytryptamine) 5-HT2C radioligand binding (ligand: [3H] Mesulergine). Type of data set: cell membranes, CHO-K1, Membrane. As to conditions: Not Active = under 50% inhibition at 10 µM; for Ki: read-out: Ki.

On to `COc1ccc(CCN(C)CCCC(C#N)(c2ccc(OC)c(OC)c2)C(C)C)cc1OC` (stereo unspecified), for which the IC50 result (on Cytochrome P450 1A2; in data set [1]; in data set [2]; in data set [3]; at Estrogen receptor; in data set [4] (reticulocytes)) was “Not Active” in each case. Further, the inhibitory constant (Ki) entry (at Cytochrome P450 1A2; in data set [1]; in data set [3]) was “Not Active” throughout.

On to `NC(=O)N1C(=O)/C(=C(\O)c2cccs2)c2cc(Cl)ccc21` [TENIDAP], for which the IC50 entry (in data set [1]; in data set [2]; in data set [3]; against Estrogen receptor; in data set [4] (reticulocytes); in data set [5] (cho-k1)) was “Not Active” each time. In addition, the Ki result in data set [1] and in data set [3] was “Not Active” throughout.

With `N#Cc1ccc(C(c2ccc(C#N)cc2)n2cncn2)cc1` [LETROZOLE], the IC50 result (in data set [1]; in data set [2]; in data set [3]; at Estrogen receptor; in data set [4] (reticulocytes); in data set [5] (cho-k1)) was “Not Active” each time. The inhibition constant Ki entry in data set [1] and in data set [3] was “Not Active” throughout.

For `O=C(Nc1ccc(Br)cc1)c1cc(Br)cc(Br)c1O` [TRIBROMSALAN], the IC50 entry (in data set [1]; in data set [2]; in data set [3]; at Estrogen receptor; in data set [4] (reticulocytes); in data set [5] (cho-k1)) was “Not Active” throughout. In addition, the inhibition constant (Ki) result in data set [1] and in data set [3] was “Not Active” throughout.

Regarding `CN[C@H]1CC[C@@H](c2ccc(Cl)c(Cl)c2)c2ccccc21` [SERTRALINE], the IC50 entry was “Not Active” against Cytochrome P450 1A2; “Not Active” in data set [2]; “Not Active” against Estrogen receptor; “Not Active” in data set [4] (reticulocytes); 1.08 µM in data set [5] (read-out: IC50). In addition, the inhibition constant (Ki) result at Cytochrome P450 1A2 was “Not Active”.

In the case of `CN(C)CCOC(c1ccccc1)c1ccccc1` [DIPHENHYDRAMINE], the IC50 entry (in data set [2]; at Estrogen receptor; in data set [4] (reticulocytes)) was “Not Active” each time.

As for `CC[C@@H](C(=O)[C@@H](C)[C@@H](O)[C@H](C)[C@@H]1O[C@@H]([C@@H](CC)C(=O)O)CC[C@@H]1C)[C@H]1O[C@]2(C=C[C@@H](O)[C@]3(CC[C@@](C)([C@H]4CC[C@](O)(CC)[C@H](C)O4)O3)O2)[C@H](C)C[C@@H]1C` [SALINOMYCIN], the IC50 result (against Cytochrome P450 1A2; in data set [1]; in data set [2]; in data set [3]; in data set [4] (reticulocytes); in data set [5] (cho-k1)) was “Not Active” each time. The Ki entry (on Cytochrome P450 1A2; in data set [1]; in data set [3]) was “Not Active” each time.

Regarding `Cc1c(C)c2c(c(C)c1O)CCC(C)(CN1CCN(c3cc(N4CCCC4)nc(N4CCCC4)n3)CC1)O2` (stereo unspecified), the concentration for half-maximal inhibition (IC50) entry in data set [1] is “Not Active”; in data set [2], “Not Active”; in data set [3], “Not Active”; against Estrogen receptor it was “Not Active”; in data set [4] (read-out: IC50), 5.67 µM; in data set [5] (read-out: IC50), 7.56 µM. Further, the results for the Ki result in data set [1], in data set [3] and in data set [5] were “Not Active”, “Not Active” and 3.96 µM, respectively.

As to `Fc1ccc(C(c2ccc(F)cc2)N2CCN(C/C=C/c3ccccc3)CC2)cc1` [FLUNARIZINE], the half-maximal inhibitory concentration (IC50) entry against Cytochrome P450 1A2 was “Not Active”; in data set [2], “Not Active”; against Estrogen receptor, “Not Active”; in data set [4] (reticulocytes), “Not Active”; in data set [5] (read-out: IC50) it was 0.669 µM. The values for the inhibitory constant (Ki) result (at Cytochrome P450 1A2; in data set [5]) were “Not Active” and 0.351 µM, respectively.

Consider `CC(C)NCC(O)c1ccc(NS(C)(=O)=O)cc1` (stereo unspecified) [SOTALOL], for which the IC50 entry (against Cytochrome P450 1A2; in data set [1]; in data set [2]; in data set [3]; in data set [4] (reticulocytes); in data set [5] (cho-k1)) was “Not Active” in each case. Besides, the Ki entry (at Cytochrome P450 1A2; in data set [1]; in data set [3]) was “Not Active” each time.

In the case of `O.O.O.O.O.O.[Cl-].[Cl-].[Sr+2]` [STRONTIUM CHLORIDE HEXAHYDRATE], the IC50 result (at Cytochrome P450 1A2; in data set [1]; in data set [2]; in data set [3]; in data set [4] (reticulocytes); in data set [5] (cho-k1)) was “Not Active” in each case. Besides, the Ki result (on Cytochrome P450 1A2; in data set [1]; in data set [3]) was “Not Active” each time.

With `Clc1ccc(COC(Cn2ccnc2)c2ccc(Cl)cc2Cl)cc1` (stereo unspecified) [ECONAZOLE], the 50% inhibitory concentration (IC50) result (in data set [2]; on Estrogen receptor; in data set [4] (reticulocytes)) was “Not Active” in each case.

Regarding `C[C@H]1C[C@@H]2[C@H]([C@@H](O)C[C@@]3(C)[C@H]2CC[C@]3(O)C(=O)CO)[C@@]2(C)C=CC(=O)C=C12` [METHYLPREDNISOLONE], the 50% inhibitory concentration (IC50) entry (against Cytochrome P450 1A2; in data set [1]; in data set [2]; in data set [3]; in data set [4] (reticulocytes); in data set [5] (cho-k1)) was “Not Active” throughout. In addition, the inhibition constant Ki entry (on Cytochrome P450 1A2; in data set [1]; in data set [3]) was “Not Active” in each case.

For `CCN1CCC[C@H]1CNC(=O)c1cc(S(N)(=O)=O)ccc1OC` [LEVOSULPIRIDE], the IC50 result (on Cytochrome P450 1A2; in data set [1]; in data set [2]; in data set [3]; in data set [4] (reticulocytes); in data set [5] (cho-k1)) was “Not Active” each time. The Ki result (at Cytochrome P450 1A2; in data set [1]; in data set [3]) was “Not Active” throughout.

The record behind these values is ChEMBL document CHEMBL1909046, “DrugMatrix in vitro pharmacology data”.
